According to patent US20040048834A1, “Antitumoral compounds” (priority 2000, published 2004):

Tests used:
Type in all cases: cell-based
U-937 = test: Cytotoxicity MTS, leukemias/lymphomas, U-937; details: 4-Parameter Curve Fit, NA = not active, read-out: Cytotoxicity IC50 Lymphoma (Histiocytic) U-937
H9 = test: Cytotoxicity MTS, leukemias/lymphomas, H9; details: 4-Parameter Curve Fit, NA = not active, read-out: Cytotoxicity IC50 Lymphoma (T cell) H9
P3HR1 = test: Cytotoxicity MTS, leukemias/lymphomas, P3HR1; details: 4-Parameter Curve Fit, NA = not active, read-out: Cytotoxicity IC50 Lymphoma (Burkitts ascites) P3HR1
RAMOS = test: Cytotoxicity MTS, leukemias/lymphomas, RAMOS; details: 4-Parameter Curve Fit, NA = not active, read-out: Cytotoxicity IC50 Lymphoma (Burkitts B cell) RAMOS
ARH-77 = test: Cytotoxicity MTS, leukemias/lymphomas, ARH-77; details: 4-Parameter Curve Fit, NA = not active, read-out: Cytotoxicity IC50 Leukemia (Plasma cell) ARH-77
HL-60 = test: Cytotoxicity MTS, leukemias/lymphomas, HL-60; details: read-out: Cytotoxicity IC50 AML (acute promyelocytic leukemia) HL-60, 4-Parameter Curve Fit, NA = not active, read-out: Cytotoxicity IC50 ALL (Promyelocytic leukemia) HL-60
K562 = test: Cytotoxicity MTS, leukemias/lymphomas, K562; details: 4-Parameter Curve Fit, NA = not active, read-out: Cytotoxicity IC50 CML (Chronic myelogenous) K562
Hut 78 = test: Cytotoxicity MTS, leukemias/lymphomas, Hut 78; details: 4-Parameter Curve Fit, NA = not active, read-out: Cytotoxicity IC50 Lymphoma (Cutaneous T cell) Hut 78
Molt 3 = test: Cytotoxicity MTS, leukemias/lymphomas, Molt 3; details: 4-Parameter Curve Fit, NA = not active, read-out: Cytotoxicity IC50 ALL (Acute lymphobalstic) Molt 3
MC116 = test: Cytotoxicity MTS, leukemias/lymphomas, MC116; details: 4-Parameter Curve Fit, NA = not active, read-out: Cytotoxicity IC50 Lymphoma (undifferentiated) MC116
A549 = test: Cytotoxicity MTS, solid tumors, NSCL A549; details: 4-Parameter Curve Fit, NA = not active
SK-OV-3 = test: Cytotoxicity MTS, solid tumors, Ovary SK-OV-3; details: 4-Parameter Curve Fit, NA = not active
786-O = test: Cytotoxicity MTS, solid tumors, Renal 786-O; details: 4-Parameter Curve Fit, NA = not active
MX-1 = test: Cytotoxicity MTS, solid tumors, Breast MX-1; details: 4-Parameter Curve Fit, NA = not active
Hs746t = test: Cytotoxicity MTS, solid tumors, Gastric Hs746t; details: 4-Parameter Curve Fit, NA = not active
HT-29 = test: Cytotoxicity MTS, solid tumors, Colon HT-29; details: 4-Parameter Curve Fit, NA = not active
FADU = test: Cytotoxicity MTS, solid tumors, Pharynx FADU; details: 4-Parameter Curve Fit, NA = not active
SK-HEP-1 = test: Cytotoxicity MTS, solid tumors, Liver SK-HEP-1; details: 4-Parameter Curve Fit, NA = not active
NCI-H187 = test: Cytotoxicity MTS, solid tumors, SCL NCI-H187; details: 4-Parameter Curve Fit, NA = not active
OSA-FH = test: Cytotoxicity MTS, solid tumors, Osteosarcoma OSA-FH; details: 4-Parameter Curve Fit, NA = not active
SW 694 = test: Cytotoxicity MTS, solid tumors, Fibrosarcoma SW 694; details: 4-Parameter Curve Fit, NA = not active
DU-145 = test: Cytotoxicity MTS, solid tumors, Prostate DU-145; details: 4-Parameter Curve Fit, NA = not active
PC-3 = test: Cytotoxicity MTS, solid tumors, Prostate PC-3; details: 4-Parameter Curve Fit, NA = not active
Y-79 = test: Cytotoxicity MTS, solid tumors, Retinoblastoma Y-79; details: 4-Parameter Curve Fit, NA = not active
Mel-28 = test: Cytotoxicity MTS, solid tumors, Melanoma Mel-28; details: 4-Parameter Curve Fit, NA = not active
PANC-1 = test: Cytotoxicity MTS, solid tumors, Pancreas PANC-1; details: 4-Parameter Curve Fit, NA = not active
5637 = test: Cytotoxicity MTS, solid tumors, Bladder 5637; details: 4-Parameter Curve Fit, NA = not active
CHSA = test: Cytotoxicity MTS, solid tumors, Chondrosarcoma CHSA; details: 4-Parameter Curve Fit, NA = not active
LNCAP = test: Cytotoxicity MTS, solid tumors, Prostate LNCAP; details: 4-Parameter Curve Fit, NA = not active

In the case of `CCCCCCCCCCCCCCCC(O)C(C)N` (stereo not drawn), the IC50 (U-937) is reported as 981 nM, the IC50 (H9) is reported as 1550 nM and the IC50 (P3HR1) is reported as 3370 nM. For the same molecule, the IC50 (RAMOS) was 2140 nM, the IC50 (ARH-77) was 682 nM and the IC50 (HL-60) was 425 nM. It also gave an IC50 (K562) of 784 nM and an IC50 (Hut 78) of 2160 nM.

`CCCCCCCCCCCCCCCCC(O)C(C)N` (stereo not drawn) showed an IC50 (U-937) of 29.8 nM, an IC50 (Molt 3) of 1120 nM and an IC50 (MC116) of 8820 nM. The IC50 (Hut 78) was 10600 nM.

Molecule `CCCCCCCCCCCCCCCCCC(O)C(C)N` (stereo not drawn) has an IC50 (Molt 3) of 7610 nM and an IC50 (MC116) of 10900 nM.

For `CCCCCCCCCCCCCCCC(=O)C(N)CC` (stereo not drawn), the IC50 (Molt 3) was 581 nM, the IC50 (H9) was 5980 nM and the IC50 (RAMOS) was 1210 nM.

Molecule `CCCCCCCCCCCCCCC[C@@H](O)[C@H](C)N` [drawing 112] has an IC50 (A549) of 85.7 nM, an IC50 (SK-OV-3) of 702 nM and an IC50 (786-O) of 138 nM. For the same molecule, the IC50 (MX-1) was 1950 nM, the IC50 (Hs746t) was 395 nM and the IC50 (HT-29) was 128 nM. It also gave an IC50 (FADU) of 249 nM and an IC50 (SK-HEP-1) of 297 nM.

`CCCCCCCCCCCCCCCC[C@@H](O)[C@H](C)N` [drawing 113] showed an IC50 (A549) of 34.3 nM, an IC50 (NCI-H187) of 163 nM and an IC50 (OSA-FH) of 183 nM. The IC50 (SW 694) was 6490 nM, the IC50 (DU-145) was 73.9 nM and the IC50 (PC-3) was 86 nM. For the same molecule, the IC50 (Y-79) was 4650 nM, the IC50 (HT-29) was 64.3 nM and the IC50 (Mel-28) was 7210 nM. It also gave an IC50 (PANC-1) of 167 nM, an IC50 5637 of 47.2 nM and an IC50 (CHSA) of 18 nM. It also gave an IC50 (FADU) of 10.3 nM and an IC50 (LNCAP) of 44.4 nM.

For `CCCCCCCCCCCCCCCCC[C@@H](O)[C@H](C)N` [drawing 114], the IC50 (A549) was 9790 nM, the IC50 (NCI-H187) was 7170 nM and the IC50 (OSA-FH) was 8600 nM. It also gave an IC50 (SW 694) of 10400 nM, an IC50 (DU-145) of 9860 nM and an IC50 (PC-3) of 49 nM. For the same molecule, the IC50 (HT-29) was 9070 nM, the IC50 (PANC-1) was 722 nM and the IC50 5637 was 6340 nM. The IC50 (CHSA) was 1580 nM, the IC50 (FADU) was 81.2 nM and the IC50 (LNCAP) was 7690 nM.

For `CCCCCCCCCCCCCC[C@@H](O)[C@H](C)N` [drawing 115], the IC50 (A549) was 10100 nM, the IC50 (SW 694) was 10100 nM and the IC50 (DU-145) was 201 nM. It also gave an IC50 (PC-3) of 379 nM, an IC50 (HT-29) of 264 nM and an IC50 (Mel-28) of 10300 nM. For the same molecule, the IC50 (PANC-1) was 86.4 nM, the IC50 5637 was 36.5 nM and the IC50 (CHSA) was 9650 nM. For the same molecule, the IC50 (FADU) was 78.4 nM and the IC50 (LNCAP) was 71.5 nM.

`CCCCCCCCCCCCCCC[C@@H](O)[C@@H](N)CC` [drawing 116] was tested, and the IC50 (A549) was 10300 nM, the IC50 (NCI-H187) was 7290 nM and the IC50 (OSA-FH) was 8520 nM. It also gave an IC50 (SW 694) of 7570 nM, an IC50 (DU-145) of 75.5 nM and an IC50 (PC-3) of 10200 nM. For the same molecule, the IC50 (Y-79) was 9510 nM, the IC50 (HT-29) was 9110 nM and the IC50 (Mel-28) was 9400 nM. The IC50 (PANC-1) was 186 nM, the IC50 5637 was 7800 nM and the IC50 (CHSA) was 8940 nM. The IC50 (FADU) was 225 nM and the IC50 (LNCAP) was 6350 nM.

`CCCCCCCCCCCCCCCCC(=O)[C@H](C)N` [drawing 119] gave an IC50 (OSA-FH) of 14900 nM, an IC50 (MX-1) of 14900 nM and an IC50 5637 of 29900 nM.

Work on `CCCCCCCCCCCCCCC[C@@H](O)[C@@H](N)CF` [drawing 122] yielded an IC50 (786-O) of 3300 nM, an IC50 (MX-1) of 4290 nM and an IC50 (DU-145) of 49.5 nM. For the same molecule, the IC50 (PC-3) was 21800 nM, the IC50 (Hs746t) was 16200 nM and the IC50 (Y-79) was 1650 nM. It also gave an IC50 (Mel-28) of 2540 nM, an IC50 5637 of 1450 nM and an IC50 (CHSA) of 4620 nM. It also gave an IC50 (FADU) of 3960 nM and an IC50 (SK-HEP-1) of 15500 nM.

Molecule `CCCCCCCCCCCCCCC(O)C(C)N` (stereo not drawn) [drawing 126] has an IC50 (Molt 3) of 9.83 nM, an IC50 (MC116) of 9580 nM and an IC50 (Hut 78) of 8810 nM.

`CCCCCCCCCCCCCCCC(O)C(N)CC` (stereo not drawn) [drawing 127] gave an IC50 (Molt 3) of 37.6 nM and an IC50 (Hut 78) of 9150 nM.

In the case of `CCCCCCCCCCCCCCCCCC(=O)[C@H](C)N` [drawing 131], the IC50 (Molt 3) is reported as 14300 nM, the IC50 (H9) is reported as 2590 nM and the IC50 (RAMOS) is reported as 1650 nM.

`CCCCCCCCCCCCCCC[C@@H](O)[C@@H](N)CF` [drawing 133] showed an IC50 (HL-60) of 1290 nM.
